Assay: Oil adsorption test for selection of lipophilic oil absorbent
Type: physicochemical
Details: for Amount of remained oil: 1.5 g substance (0.1 g hydroxypropyl methyl cellulose and polyethylene oxide, 0.5 g light anhydrous silicic acid), 5 g soybean oil, 15 g purified water, mixed 2 min, centrifuged 3,000 g 5 min, weight of supernatant oil layer; for Adsorption (%): ratio of oil adsorbed (dispersants: oil within dispersing layer) to total oil amount (5 g)
Experimental: In order to select a lipophilic oil absorbent that is capable of adsorbing unabsorbed free oil by the action of a lipase inhibitor, various substances known as a dispersant or adsorbent were subjected to an adsorption test as follows. 1.5 g of each ingredient listed in Table 1 (excepted for 0.1 g of each of hydroxypropyl methyl cellulose and polyethylene oxide, 0.5 g of light anhydrous silicic acid), 5 g of soybean oil and 15 g of purified water were mixed in a test tube for 2 minutes and centrifuged at 3,000 g for 5 minutes. After separating the supernatant oil layer, the oil adsorption degree of each substance was determined.
In table 1, the amount of oil remained was measured from the weight of the oil layer after adsorption, and the adsorption (%) means the ratio of the amount of oil adsorbed (which is obtained by subtracting the remained oil amount from the total oil amount) to the total amount of oil. On using a dispersant, the amount of oil remained means the oil amount of a supernatant excepting oil dispersed layer, and the adsorption (%) means the ratio of the oil amount within the dispersing layer to the total oil amount (5 g).

Amount of remained oil	Adsorption (%) (sulfate)	Adsorption (%)	Compound
0.00 g	100%		CCCCCCCCCCCCOS(=O)(=O)[O-].[Na+] [Sodium lauryl sulfate]
2.79 g		2.79%	Polyoxyethylene(2) cetyl ether
0.17 g		1.13%	Sorbitan trioleate

Reference: patent US8246985B2, “Pharmaceutical composition comprising lipase inhibitor and lipophilic oil absorbent and oral formulation prepared therefrom” (Amorepacific Corporation, priority 2006, dated 2012)
